The record followed here is patent US20050260733A1, “Proteases and uses thereof” (WYETH, priority 2004, published 2005).

The subject of the experiment is MAb AGG-C1. The experiment in a line: Competitive inhibition ELISA validating the neoepitope specificity of MAb AGG-C1. The format is binding, mouse. The conditions noted are these: competitor 1.0-1000 nmol/ml, MAb AGG-C1 0.04 μg/ml, FIG. 5. The protocol:
Streptavidin-coated microtiter plates (Pierce, Rockford, Ill.) were coated with N-terminally biotinylated peptide aggc1 (b-aggc1) by incubating each well with 100 μl of b-aggc1 (100 ng/ml) for 1 h at room temperature. After washing 4 times with phosphate-buffered saline containing 0.01% Tween-20 (PBS-Tween), wells were blocked for 1 h at room temperature with 100 μl of PBS-Tween containing 2% BSA, followed by 4 washes with PBS-Tween.
In order to validate the neoepitope nature of MAb AGG-C1, competition mixtures (100 μl) comprised of MAb AGG-C1 (0.04 μg/ml) and 1.0-1000 nmol/ml of the synthetic peptides GGLPLPRNITEGE (SEQ ID NO:22), GGLPLPRNITEGE ARGSVILTVK-CONH2 (SEQ ID NO:23), undigested aggrecan, or ADAMTS-4 digested aggrecan were preincubated for 1 h at room temperature. Mixtures were then transferred to b-aggc1 coated wells. After a further incubation for 1 h at room temperature, the plates were washed 4 times with PBS-Tween then incubated for 1 h at room temperature with 100 μl of peroxidase-conjugated secondary goat anti-mouse IgG (1:10,000). Following 4 final washes with PBS-Tween, the wells were incubated with TMB 1 component microwell peroxidase substrate (BioFX Laboratories, Owings Mills, Md.). Color development was terminated by the addition of 0.18 M H2SO4, and the absorbance was monitored spectrophotometrically at 450 nm.
Consider “GGLPLPRNITEGE (listed as Homo sapiens) [Synthetic peptide whose C-terminus corresponds to E373 of aggrecan core protein]”, for which the “competition for MAb AGG-C1 binding to biotinylated aggc1 peptide” value (from here on “competition for MAb AGG-C1 binding”) is listed as “Dose-dependent competition”.

On to “ADAMTS4 digested aggrecan: Bovine aggrecan digested with ADAMTS-4, used as ELISA competitor”, for which the “competition for MAb AGG-C1 binding” value is on record as “Dose-dependent competition”.

Take “undigested aggrecan: Intact bovine aggrecan, used as ELISA competitor”: the “competition for MAb AGG-C1 binding” value was “did not compete”.

Regarding “GGPLPRNITEGEARGSVILTVK [Synthetic peptide spanning the aggrecanase cleavage site]”, the “competition for MAb AGG-C1 binding” value is reported as “did not compete”.
